According to PMC7311396, “Ultra-large chemical libraries for the discovery of high-affinity peptide binders” (Nature Communications, 2020):
Like-named read-outs stand apart in the source and are kept apart here. Non-standard residues stand in square brackets, D forms with d. Residues, ends and D or L forms follow the SMILES beside them. *: point of attachment. FITC = O=C1OC2(c3ccc(O)cc3Oc3cc(O)ccc32)c2ccc(NC(=S)*)cc21; Phe(4-NO2) = N[C@@H](Cc1ccc([N+](=O)[O-])cc1)C(=O)O; Ala(4-thiazolyl) = N[C@@H](Cc1cscn1)C(=O)O; β3hT = C[C@@H](O)[C@H](N)CC(=O)O; pS = N[C@@H](COP(=O)(O)O)C(=O)O; Aad = N[C@@H](CCCC(=O)O)C(=O)O; Cha = N[C@@H](CC1CCCCC1)C(=O)O; β3hS = N[C@@H](CO)CC(=O)O; Orn = NCCC[C@H](N)C(=O)O; Nva = CCC[C@H](N)C(=O)O; βAla = NCCC(=O)O

How the values were obtained:
anti-HA mAb clone 12ca5 = assay: Competition fluorescence polarization of HA epitope and analogues; type: binding; settings: for effect of mutation on affinity towards 12ca5: competition FP of HA epitope Ala scan mutants; for IC50: competition FP, 100 nM 12ca5, 28 nM YPYDVPDYAK(FITC)-CONH2, 1 mg/mL BSA, 0.02% Tween 20, 1x PBS, RT, read after 1 h; for Kd: from competition FP, 100 nM 12ca5, 28 nM FITC tracer
Experimental: Competition fluorescence polarization of HA epitope and analogues:
Solutions of unlabeled peptides (~1 mg/mL each; Supplementary Table 1) in 1x PBS was prepared in the presence of 100 nM 12ca5, 1 mg/mL BSA, 0.02% Tween 20 (120 μL). Fluorescent competitor was added (YPYDVPDYAK(FITC)α-CONH2; 28 nM).
The resulting solution was diluted serially (20 μL) into 100 nM 12ca5, 28 nM […]
YPYDVPDYAK(FITC)α-CONH2, 1 mg/mL BSA, 0.02% Tween 20 in 1x PBS (80 μL; […]
5-fold dilutions). The resulting solutions were transferred to a 96 well plate (Greiner Bio- […]
(RT), and read after 1 h on a Tecan Infinite M1000 plate reader (470 nm excitation; 517 nm detection; 5 nm bandwidth). The concentration of fluorescent […] was determined based on absorbance at 490 nm, using ε = 76,900 M-1cm-1.
Competition fluorescence polarization of HA epitope Ala scan mutants:
Competition fluorescence polarization experiments were carried out as described in Competition fluorescence polarization of HA epitope and analogues.

14-3-3γ [1] = biological target: T1, 14-3-3γ (Homo sapiens, UniProt P61981); assay: Direct fluorescence anisotropy binding assay
T1 construct: Full-length human 14-3-3γ was expressed by transforming pROEX HTb plasmid; His6; made in house; host or cells: Rosetta(DE3) Escherichia coli
T1 sequence (P61981 1-247): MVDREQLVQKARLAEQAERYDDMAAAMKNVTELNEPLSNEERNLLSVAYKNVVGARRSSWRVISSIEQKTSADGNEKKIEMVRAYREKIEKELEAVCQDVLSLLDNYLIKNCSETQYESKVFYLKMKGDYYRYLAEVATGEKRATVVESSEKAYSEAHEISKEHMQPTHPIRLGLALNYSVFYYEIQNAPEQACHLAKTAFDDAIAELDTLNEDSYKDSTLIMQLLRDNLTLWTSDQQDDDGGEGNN
Experimental: (§1) All direct fluorescence anisotropy affinity measurements were conducted in FA buffer (10 mM HEPES pH 7.4, 150 mM NaCl, 0.1% (v/v) Tween 20, 0.1% (w/v) BSA). A 1:1 dilution series of 14-3-3γ (starting at 100 μM) was performed in polystyrene non-binding low-volume Corning Black Round Bottom 384-well plates (Corning 4514) containing a fixed concentration FITC-labeled peptide (10 nM or 50 nM). Measurements were performed at ambient temperature using a Tecan Infinite F500 plate reader with the following parameters: λex: 485 (20) nm; λem: 535 (25) nm; mirror: Dichroic 510; flashes: 20; integration time: 50 μs; settle time; 0 μs; gain: manual 90; Z-position: calculated from well. The G-factor was set at 35 mP based on wells containing only the FITC-labeled peptide.
Fluorescence anisotropy binding assay of 14-3-3γ-binding peptides:
as §1, with “All” for “All direct”, “BSA). During each assay a” for “BSA). A”, “series” for “series of 14-3-3γ”, “μM) of 14-3-3γ” for “μM)”, “was made in wells containing a fixed concentration FITC-labeled peptide (10 nM or 50 nM). This was done” for “was performed”, “(Corning 4514).” for “(Corning 4514) containing a fixed concentration FITC-labeled peptide (10 nM or 50 nM).”

14-3-3γ [2] = biological target: T1, 14-3-3γ; assay: Fluorescence anisotropy competition assay with FITC-labeled BiExoS; type: binding
Experimental: All fluorescence anisotropy competition experiments were conducted in FA buffer (10 mM HEPES pH 7.4, 150 mM NaCl, 0.1% (v/v) Tween-20, 0.1% (w/v) BSA). A 1:1 dilution series of unlabeled peptides (starting at 10 μM) were performed in wells containing a fixed concentration FITC-labeled biExoS (10 nM) and 14-3-3γ (20 nM). Measurements were performed at ambient temperature using a Tecan Infinite F500 plate reader with the following parameters: λex = 485 (20) nm; λem = 535 (25) nm, mirror: Dichroic = 510, flashes: 20; integration time: 50 μs; settle time: 0 μs; gain: manual 90; and Z-position: calculated from well. The G-factor was set at 35 mP based on wells containing only the FITC-labeled peptide.
Competition fluorescence anisotropy binding assay of 14-3-3γ-binding peptides:
All fluorescence anisotropy affinity measurements were conducted in FA buffer (10 mM HEPES pH 7.4, 150 mM NaCl, 0.1% (v/v) Tween-20, 0.1% (w/v) BSA). During each assay a 1:1 dilution series (starting at 10 μM) of unlabeled peptides were made in wells containing a fixed concentration FITC-labeled biExoS (10 nM; FITC-O1Pen- […]
[…](GGSGGGGSGG)[…]-CONH2)5, and 14-3-3γ (20 nM).
This is done in polystyrene non -binding low-volume Corning Black Round Bottom 384 - well plates (Corning 4514). Measurements were performed at ambient temperature using a Tecan Infinite F500 plate reader with the following parameters : λex = 485 (20) nm; λem = 535 (25) nm, mirror: Dichroic = 510, flashes: 20; integration time: 50 μs; settle time: 0 μs; gain: manual 90; and Z-position: calculated from well. The G-factor was set at 35 mP based on wells containing only the FITC-labeled peptide.

14-3-3σΔc = biological target: T2, 14-3-3σΔc (Homo sapiens, UniProt P31947); assay: Direct fluorescence anisotropy binding validation with 14-3-3σΔc; settings: 14-3-3σ
T2 construct: The 14-3-3σ isoform with a truncated C-terminus after T321; His6 (cleaved yes); made in house; host or cells: BL21(DE3) Escherichia coli
T2 sequence (P31947 1-231 limits assumed): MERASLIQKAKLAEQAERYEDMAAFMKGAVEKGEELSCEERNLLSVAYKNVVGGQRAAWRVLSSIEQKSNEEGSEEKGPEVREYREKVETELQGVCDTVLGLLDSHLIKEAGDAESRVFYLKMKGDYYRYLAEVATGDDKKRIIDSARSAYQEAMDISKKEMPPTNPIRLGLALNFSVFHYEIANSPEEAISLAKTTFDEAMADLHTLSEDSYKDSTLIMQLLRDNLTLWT

[3] = FITC-labeled peptide (10 or 50 nM), 14-3-3γ dilution from 100 μM, FA buffer pH 7.4, ambient temperature, ± 95% confidence interval, read-out: KD

YPYDVPDAAα-CONH2
effect of mutation on affinity towards 12ca5 (anti-HA mAb clone 12ca5): completed abrogated affinity

YPYAVPDYAα-CONH2
effect of mutation on affinity towards 12ca5 (anti-HA mAb clone 12ca5): deleterious but did not completely abolish binding

CC(C)C[C@@H](N)C(=O)N[C@@H](Cc1ccc([N+](=O)[O-])cc1)C(=O)N[C@@H](CO)CC(=O)N[C@@H](Cc1ccc([N+](=O)[O-])cc1)C(=O)N[C@@H](COP(=O)(O)O)C(=O)N[C@@H](Cc1ccc([N+](=O)[O-])cc1)C(=O)N[C@@H](CO)CC(=O)NCCC(=O)N[C@@H](Cc1ccc([N+](=O)[O-])cc1)C(=O)N[C@@H](CCCCN)C(N)=O [14-3-3.1] (H-[dL][Phe(4-NO2)][β3hS][Phe(4-NO2)][pS][Phe(4-NO2)][β3hS][βAla][Phe(4-NO2)]K-NH2)
Kd (14-3-3γ [1]; KD, FITC-labeled peptide (10 or 50 nM), 14-3-3γ dilution from 100 μM, FA buffer pH 7.4, ambient temperature, ± 95% confidence interval): 5.7 ± 1 nM | IC50 (14-3-3γ [2]): 465 ± 45 nM

YPYDVPAYAα-CONH2
effect of mutation on affinity towards 12ca5 (anti-HA mAb clone 12ca5): completed abrogated affinity

C[C@@H](O)[C@@H](CC(=O)N[C@@H](CCCCN)C(N)=O)NC(=O)[C@H](Cc1ccc([N+](=O)[O-])cc1)NC(=O)[C@H](Cc1cscn1)NC(=O)[C@H](CCCC(=O)O)NC(=O)[C@H](COP(=O)(O)O)NC(=O)[C@H](Cc1cscn1)NC(=O)[C@@H](CCC(N)=O)NC(=O)C[C@H](CO)NC(=O)[C@H](N)CCCCN [NB.1] (H-[dK][β3hS][dQ][Ala(4-thiazolyl)][pS][Aad][Ala(4-thiazolyl)][Phe(4-NO2)][β3hT]K-NH2; N-terminus and C-terminus assumed)
Kd (14-3-3γ [1]; [3]): 64000 ± 20000 nM | fold weaker binding than the 14-3-3γ-binding peptides (14-3-3γ [1]; fluorescence anisotropy, FITC-labeled peptides): ~ 10,000 fold | inhibitory activity (competition with BiExoS) (14-3-3γ [2]; unlabeled peptide, 10 nM FITC-labeled biExoS, 20 nM 14-3-3γ): no inhibitory activity

CCC[C@H](NC(=O)[C@H](N)CCCCN)C(=O)N[C@@H](Cc1ccc([N+](=O)[O-])cc1)C(=O)N[C@@H](Cc1cscn1)C(=O)N[C@@H](COP(=O)(O)O)C(=O)N[C@@H](Cc1ccc([N+](=O)[O-])cc1)C(=O)N[C@@H](CO)CC(=O)NCCC(=O)N[C@@H](Cc1ccc([N+](=O)[O-])cc1)C(=O)N[C@@H](CCCCN)C(=O)NCCC(=O)N[C@@H](CCCCNC(=S)Nc1ccc2c(c1)C(=O)OC21c2ccc(O)cc2Oc2cc(O)ccc21)C(N)=O [FITC-labeled 14-3-3.12] (H-[dK][Nva][Phe(4-NO2)][Ala(4-thiazolyl)][pS][Phe(4-NO2)][β3hS][βAla][Phe(4-NO2)]K[βAla]K(FITC)-NH2)
Kd (14-3-3γ [1]; Kd, 14-3-3γ, 0 h after incubation): 19.5 nM | Kd (14-3-3γ [1]; Kd, 14-3-3γ, 4 h after incubation): 19.4 nM | Kd (14-3-3γ [1]; Kd, 14-3-3γ, 20 h after incubation): 21.9 nM | Kd (14-3-3σΔc; 0 h after incubation): 229 nM | Kd (14-3-3σΔc; 4 h after incubation): 169 nM | Kd (14-3-3σΔc; 20 h after incubation): 102 nM

NCCCC[C@H](NC(=O)[C@H](Cc1ccc([N+](=O)[O-])cc1)NC(=O)C[C@H](CO)NC(=O)C[C@H](CO)NC(=O)[C@H](Cc1ccc([N+](=O)[O-])cc1)NC(=O)[C@H](COP(=O)(O)O)NC(=O)[C@H](CCCN)NC(=O)C[C@H](CO)NC(=O)[C@H](CC1CCCCC1)NC(=O)[C@@H](N)CC1CCCCC1)C(N)=O [14-3-3.6] (H-[Cha][Cha][β3hS][Orn][pS][Phe(4-NO2)][β3hS][β3hS][Phe(4-NO2)]K-NH2; N-terminus and C-terminus assumed)
Kd (14-3-3γ [1]; [3]): 3.1 ± 0.3 nM | IC50 (14-3-3γ [2]; unlabeled peptide from 10 μM, 10 nM FITC-labeled biExoS, 20 nM 14-3-3γ, FA buffer pH 7.4, ambient temperature, read-out: IC50): 77 ± 8 nM

CC(C)[C@H](NC(=O)[C@H](CC(=O)O)NC(=O)[C@H](Cc1ccc(O)cc1)NC(=O)[C@@H]1CCCN1C(=O)[C@@H](N)Cc1ccc(O)cc1)C(=O)N1CCC[C@H]1C(=O)N[C@@H](CC(=O)O)C(=O)N[C@@H](Cc1ccc(O)cc1)C(=O)NCC(N)=O [YPYDVPDYG] (H-YPYDVPDYG-NH2; N-terminus assumed)
effect of mutation on affinity towards 12ca5 (anti-HA mAb clone 12ca5): deleterious but did not completely abolish binding | IC50 (anti-HA mAb clone 12ca5): 3600 ± 1000 nM | Kd (anti-HA mAb clone 12ca5): 170 ± 70 nM

NC(=O)[C@@H](Cc1c[nH]cn1)NC(=O)[C@H]1CCCN1C(=O)[C@@H](CCC(=O)O)NC(=O)[C@@H](CC(=O)O)NC(=O)[C@@H](Cc1ccccc1)NC(=O)[C@@H](CCC(=O)O)NC(=O)[C@@H](Cc1ccc(O)cc1)NC(=O)[C@H]1CCCN1C(=O)[C@H](N)Cc1ccc(O)cc1 [ypyefdeph, reference compound] (H-[dY][dP][dY][dE][dF][dD][dE][dP][dH]-NH2)
IC50 (anti-HA mAb clone 12ca5): 380000 ± 25000 nM | Kd (anti-HA mAb clone 12ca5): 18000 ± 4000 nM
